“Also recorded” adds a separate entry of the source. Read-outs that look alike come from different tables or passages of the source.
Tests used:
rats [1] = details: cited from earlier work
male rats = assay: methamphetamine self-administration in male rats; assay type: in vivo, rat; details: for antagonism of oxazepam's effect on methamphetamine self-administration: standard dose methamphetamine; for low dose methamphetamine self-administration: alprazolam 4 mg/kg IP, very low doses of methamphetamine, FIG. 3, 5A
[2] = humans, cited from earlier work
TSPO mRNA = details: rats; 1.0 mg/kg IP twice per day for 2 weeks, withdrawn for 7 days; cited from earlier work
[3] = rats, intraperitoneal injection; cited from earlier work
TSPO [4] = details: cited from earlier work
[5] = test system: drug-dependent individuals; details: cited from earlier work
rats [6] = assay: methamphetamine drug-induced reinstatement (D-IR) study; assay type: in vivo, rat; details: FIG. 4
female rats [7] = assay: cocaine drug discrimination; assay type: in vivo, rat; details: pretreatment, FIG. 2B
female Wistar rats = assay: methamphetamine drug discrimination; assay type: in vivo, rat; details: female Wistar rats trained to discriminate 1 mg/kg methamphetamine (IP) from saline; pretreatment; alprazolam 4 mg/kg IP at low doses 0.125 and 0.25 mg/kg methamphetamine; FIG. 2A
Protocol: (§1) Adult female Wistar rats were trained to discriminate 1 mg/kg methamphetamine (IP) from saline using food pellet reinforcement according to previously published procedures (Mantsch and Goeders, 1999, 1998). Pretreatment with alprazolam (4 mg/kg, IP) enhanced the methamphetamine discriminative stimulus at doses of 0.125 and 0.25 mg/kg methamphetamine. […] These observations have been confirmed using a conditioned place preference model as well, evidencing that benzodiazepines differentially modulate the rewarding and reinforcing properties of methamphetamine. […] Thus, this is an extraordinarily consistent pattern across three very different models of drug-related behaviors.

[8] = cocaine-related behaviors; details: in vivo
Protocol: Benzodiazepines affect cocaine and methamphetamine-related behaviors differently—The inventors' laboratory has long been interested in the role for benzodiazepines in drug addiction.
as §1

TSPO [9] = molecular target: TSPO (Rattus norvegicus, UniProt P16257); assay: ex vivo homogenate binding, TSPO; details: structure-activity relationships, confirmed by ex vivo homogenate binding in rat brain tissue
Chain of TSPO (Rattus norvegicus, UniProt P16257) (P16257 whole entry): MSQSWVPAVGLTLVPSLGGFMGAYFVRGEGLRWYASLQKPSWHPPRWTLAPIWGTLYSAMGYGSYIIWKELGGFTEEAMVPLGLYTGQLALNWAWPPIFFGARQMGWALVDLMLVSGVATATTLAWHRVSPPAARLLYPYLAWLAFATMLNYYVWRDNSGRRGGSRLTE

GABAA receptor = assay: ex vivo homogenate binding, GABAA receptor; details: structure-activity relationships, confirmed by ex vivo homogenate binding in rat brain tissue
humans = details: Lile et al., cited from earlier work
female rats [10] = assay: methamphetamine self-administration in female rats; assay type: in vivo, rat
Excerpt: Turning to FIGS. 6 and 7, the inventors tested the TSPO compound Ro5-4864 in an animal model of methamphetamine self-administration in male and female rats. […] The inventors compared these effects to the effects of the benzodiazepine alprazolam. […] The inventors also show preliminary data with Ro7-9277 with female rats.

[11] = male rats trained at 0.06 mg/kg/infusion, pretreatment

For `CC(=O)[C@H]1CC[C@H]2[C@@H]3CC[C@H]4C[C@H](O)CC[C@]4(C)[C@H]3CC[C@]12C` [Allopregnanolone], the cocaine-related responding (rats [1]; both genders) is listed as “decrease” and the methamphetamine-related responding (rats [1]; female rats) is listed as “decrease”.
With `CCOC(=O)c1ncn2c1CN(C)C(=O)c1cc(F)ccc1-2` [flumazenil] the “antagonism of alprazolam's effect on low-dose methamphetamine self-administration” value (male rats; antagonist administered 30 minutes prior to alprazolam, FIG. 5A) was “inhibited; also recorded: blocked” and the “antagonism of oxazepam's effect on methamphetamine self-administration” value (shortened to “antagonism of oxazepam's effect”) (male rats; male rats, FIG. 5B) was “partially blocked”.
For `CN[C@@H](C)Cc1ccccc1` [methamphetamine], the “Tmax of methamphetamine in blood” value ([2]; intranasal administration) is listed as 2.82 ± 0.13 h, the “Tmax of methamphetamine in blood” value ([2]; intravenously administered) is listed as 0.1 ± 0.183 h and the “Tmax of methamphetamine in blood” value ([2]; oral, range 180-300 min) is listed as 3.6 h. The “Tmax of methamphetamine in blood” value ([2]; smoked) was 2.5 ± 0.5 h, the “TSPO mRNA” value (TSPO mRNA) was “enhances” and the Tmax of methamphetamine [3] was 7.5 ± 2.8 min. For the same compound, the TSPO binding (TSPO [4]; self-administration of methamphetamine 0.3 mg/kg/inf) was “enhances” and the “TSPO binding in the striatum, cerebellum and hippocampus” value (TSPO [4]; subchronic repeated doses 4×10 mg/kg SC every two hours, within 72 hours) was “increase”.
In the case of `Cc1nnc2n1-c1ccc(Cl)cc1C(c1ccccc1)=NC2` [alprazolam, 8-chloro-1-methyl-5-phenyl-4H-(1,2,4)triazolo-1,4-benzodiazepine], the “desirability among benzodiazepines (abuse liability)” value [5] is listed as “one of the most desired”, the “low dose methamphetamine-induced reinstatement” value (rats [6]; low-dose priming injection of methamphetamine) is listed as “enhanced; also recorded: potentiated” and the “cocaine discriminative stimulus effects” value (female rats [7]) is listed as “did not affect; also recorded: no effect”. The “methamphetamine discriminative stimulus effects” value (female Wistar rats) was “enhanced”, the cocaine-related behaviors [8] was “decrease; also recorded: reduce” and the “low dose methamphetamine self-administration” value (male rats; [11]) was “enhanced; also recorded: significant increases”. The “binding to the TSPO” value (TSPO [9]) was “low affinity”, the “binding to the GABAA receptor” value (GABAA receptor) was “binds selectively” and the “subjective effects of the methamphetamine high” value (humans; benzodiazepine given acutely at the same time as the stimulant) was “reduced”.
For `O=C1Nc2ccc(Cl)cc2C(c2ccccc2)=NC1O` (stereo not shown) [oxazepam, 7-chloro-1,3-dihydro-3-hydroxy-5-phenyl-2H-1,4-benzodiazepin-2-one], the “desirability among benzodiazepines (abuse liability)” value [5] is listed as “one of the least desirable”, the methamphetamine-induced reinstatement (rats [6]; all doses tested) is listed as “decreased” and the “cocaine discriminative stimulus effects” value (female rats [7]) is listed as “dose-dependently decreased”. The “methamphetamine discriminative stimulus effects” value (female Wistar rats) was “dose-dependently decreased”, the cocaine-related behaviors [8] was “decrease; also recorded: reduce” and the “low dose methamphetamine self-administration” value (male rats; [11]) was “no effect”. The “methamphetamine self-administration across all doses tested” value (male rats; male rats trained at 0.06 mg/kg/infusion, pretreatment, FIG. 3) was “decreased; also recorded: significant decreases”, the “standard dose methamphetamine self-administration” value (male rats; male rats, FIG. 5B) was “decreased” and the “binding to the TSPO” value (TSPO [9]) was “binds”. For the same compound, the “binding to the GABAA receptor” value (GABAA receptor) was “binds” and the “subjective effects of d-amphetamine” value (humans; benzodiazepine given acutely at the same time as amphetamine) was “no significant effect”.
In the case of `CCC(C)N(C)C(=O)c1cc2ccccc2c(-c2ccccc2Cl)n1` (stereo not shown) [PK11195], the “antagonism of oxazepam's effect” value (male rats; male rats, FIG. 5B) is reported as “partially blocked” and the “antagonism of oxazepam's effect” value (male rats; male rats, FIG. 5B, listed as PKII195) is reported as “blocked”.
With `CN1C(=O)CN=C(c2ccc(Cl)cc2)c2cc(Cl)ccc21` [Ro5-4864, 4′,7-Dichloro-1,3-dihydro-1-methyl-5-phenyl-2H-1,4-benzodiazepin-2-one] the methamphetamine self-administration (male rats; male rats, FIG. 6) was “dose-related decrease”, the “sensitivity of female rats compared to male rats to the effect on methamphetamine self-administration” value (female rats [10]; FIG. 7 versus FIG. 6) was “significantly more sensitive” and the methamphetamine self-administration (female rats [10]; female rats, FIG. 7) was “dose-related decrease”.

— patent US10702537B2, “Devices and methods of treating methamphetamine addiction and medical and behavioral consequences of methamphetamine use and of HIV infection” (Board of Supervisors of Louisiana State University and …, priority 2015, dated 2020)
